Earlier results on 3 compounds are cited in patent publication US11135271B2, “Glucagon derivatives with improved stability” (HANMI PHARM. CO., LTD., priority 2014, dated 2021).

For series [1] the following is noted: when taken for 1 year.
For series [2] the following is noted: according to reports.

For `CCCCCCCCCCC[C@@H](C[C@@H]1OC(=O)[C@H]1CCCCCC)OC(=O)[C@H](CC(C)C)NC=O` [Orlistat], the weight loss result in series [1] is “about 4 kg”.
As for `Cc1c(C(=O)NN2CCCCC2)nn(-c2ccc(Cl)cc2Cl)c1-c1ccc(Cl)cc1` [Rimonabant], the side-effect entry in series [2] is “central nervous system disorder”.
For the compound `CC(C)CC(N(C)C)C1(c2ccc(Cl)cc2)CCC1` (stereo not drawn) [Sibutramine], in series [2], the side-effect result is reported as “cardiovascular side-effects”.
